Assay results taken from patent US6355799B1, “Substituted benzene compounds, process for their preparation, and herbicidal and defoliant compositions containing them” (ISK Americas Incorporated, priority 1997, dated 2002).

Key:
Type in all cases: in vivo
[1] = system: redroot pigweed (Amaranthus retroflexus, AMARE); experiment: Pre-emerge test, greenhouse herbicide activity screening; settings: rated 14 days after application, 0 = no damage, 100 = complete death
Procedure, shortened: (§1)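 Compounds in acetone were track-sprayed at 187 l/ha, 15–1000 g ai/ha, onto sandy loam pots. Pre-emerge seeds were sown one day before spraying, with surface watering afterwards. Post-emerge plants were at the 2–3 leaf stage and sprayed with 0.25% v/v non-ionic surfactant. Injury was rated 0–100 at 14 days.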

[2] = system: barnyardgrass (Echinochloa crus-galli, ECHCG); experiment: as above; settings: rated 14 days after application, 0 = no damage, 100 = complete death
Procedure, shortened: (§2)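 Fourteen days after spraying, crop and weed injury was graded visually from 0, no effect, to 100, every plant dead. Test substances were dissolved in acetone and applied at 15–1000 g ai/ha with a flat-fan nozzle. Application was either pre-emergence, one day after sowing, or post-emergence at the 2–3 leaf stage.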

[3] = system: common ragweed (Ambrosia artemisizfolia L., AMBEL); experiment: as above; settings: rated 14 days after application, 0 = no damage, 100 = complete death
Procedure, shortened: as §2

[4] = system: green foxtail (Setaria viridis, SETVI); experiment: as above; settings: rated 14 days after application, 0 = no damage, 100 = complete death
Procedure, shortened: as §2

[5] = system: ivyleaf morningglory (Ipomoea hederacea, IPOHE); experiment: as above; settings: rated 14 days after application, 0 = no damage, 100 = complete death
Procedure, shortened: as §2

[6] = system: johnsongrass (Sorghum halepense, SORHA); experiment: as above; settings: rated 14 days after application, 0 = no damage, 100 = complete death
Procedure, shortened: as §2

[7] = system: lambsquarters (Chenopodium album, CHEAL); experiment: as above; settings: rated 14 days after application, 0 = no damage, 100 = complete death
Procedure, shortened: as §2

[8] = system: large crabgrass (Digitaria sanguinalis, DIGSA); experiment: as above; settings: rated 14 days after application, 0 = no damage, 100 = complete death
Procedure, shortened: as §2

[9] = system: sicklepod (Cassia obtusifolia, CASOB); experiment: as above; settings: rated 14 days after application, 0 = no damage, 100 = complete death
Procedure, shortened: as §2

[10] = system: velvetleaf (Abutilon theophrasti, ABUTH); experiment: as above; settings: rated 14 days after application, 0 = no damage, 100 = complete death
Procedure, shortened: as §2

[11] = system: field corn (Zea mays L., var. Dekalb 535, CORN); experiment: Pre-emerge test, crop safety; settings: rated 14 days after application, 0 = no damage, 100 = complete death
Procedure, shortened: (§3)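 Sandy loam pots; pre-emerge: sown 1 d pre-spray, surface-watered after, then bottom-watered. Post-emerge: sown 8–21 d before, 2–3 leaf stage, + 0.25% v/v NIS, bottom-watered. Acetone, 187 l/ha track spray, 15–1000 g ai/ha. 0–100 injury score, day 14.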

[12] = system: upland rice (Oryza sp., var. Tebonnet, RICE); experiment: Pre-emerge test, crop safety; settings: rated 14 days after application, 0 = no damage, 100 = complete death
Procedure, shortened: as §3

[13] = system: barnyardgrass (Echinochloa crus-galli, ECHCG); experiment: Post-emerge test, greenhouse herbicide activity screening; settings: post-emerge, 14 days after application, rating scale 0-100
Procedure, shortened: as §1

[14] = system: common ragweed (Ambrosia artemisizfolia L., AMBEL); experiment: as above; settings: post-emerge, 14 days after application, rating scale 0-100
Procedure, shortened: as §1

[15] = system: ivyleaf morningglory (Ipomoea hederacea, IPOHE); experiment: as above; settings: post-emerge, 14 days after application, rating scale 0-100
Procedure, shortened: as §1

[16] = system: johnsongrass (Sorghum halepense, SORHA); experiment: as above; settings: post-emerge, 14 days after application, rating scale 0-100
Procedure, shortened: as §1

[17] = system: lambsquarters (Chenopodium album, CHEAL); experiment: as above; settings: post-emerge, 14 days after application, rating scale 0-100
Procedure, shortened: as §1

[18] = system: large crabgrass (Digitaria sanguinalis, DIGSA); experiment: as above; settings: post-emerge, 14 days after application, rating scale 0-100
Procedure, shortened: as §1

[19] = system: redroot pigweed (Amaranthus retroflexus, AMARE); experiment: as above; settings: post-emerge, 14 days after application, rating scale 0-100
Procedure, shortened: as §1

[20] = system: sicklepod (Cassia obtusifolia, CASOB); experiment: as above; settings: post-emerge, 14 days after application, rating scale 0-100
Procedure, shortened: as §1

[21] = system: velvetleaf (Abutilon theophrasti, ABUTH); experiment: as above; settings: post-emerge, 14 days after application, rating scale 0-100
Procedure, shortened: as §1

[22] = system: field corn (Zea mays L., var. Dekalb 535, CORN); experiment: Post-emerge test, crop safety; settings: post-emerge, 14 days after application, rating scale 0-100
Procedure, shortened: as §2

[23] = system: upland rice (Oryza sp., var. Tebonnet, RICE); experiment: Post-emerge test, crop safety; settings: post-emerge, 14 days after application, rating scale 0-100
Procedure, shortened: as §2

COc1c(Cl)cc(F)c(-n2c(=O)cc(C(F)(F)F)n(C)c2=O)c1N(C(=O)c1ccc(C(F)(F)F)cc1)C(=O)c1ccc(C(F)(F)F)cc1 [2-34]
Pre-emerge Herbicidal Activity, phytotoxicity rating (0-100), AMARE ([1]; 63 g ai/ha): 100 | Pre-emerge Herbicidal Activity, phytotoxicity rating (0-100), AMARE ([1]; 250 g ai/ha): 100 | Pre-emerge Herbicidal Activity, phytotoxicity rating (0-100), ECHCG ([2]; 63 g ai/ha): 70 | Pre-emerge Herbicidal Activity, phytotoxicity rating (0-100), ECHCG ([2]; 250 g ai/ha): 99 | Pre-emerge Herbicidal Activity, phytotoxicity rating (0-100), AMBEL ([3]; 63 g ai/ha): 100 | Pre-emerge Herbicidal Activity, phytotoxicity rating (0-100), AMBEL ([3]; 250 g ai/ha): 100 | Pre-emerge Herbicidal Activity, phytotoxicity rating (0-100), SETVI ([4]; 63 g ai/ha): 95 | Pre-emerge Herbicidal Activity, phytotoxicity rating (0-100), SETVI ([4]; 250 g ai/ha): 100 | Pre-emerge Herbicidal Activity, phytotoxicity rating (0-100), IPOHE ([5]; 63 g ai/ha): 100 | Pre-emerge Herbicidal Activity, phytotoxicity rating (0-100), IPOHE ([5]; 250 g ai/ha): 100 | Pre-emerge Herbicidal Activity, phytotoxicity rating (0-100), SORHA ([6]; 63 g ai/ha): 20 | Pre-emerge Herbicidal Activity, phytotoxicity rating (0-100), SORHA ([6]; 250 g ai/ha): 85 | Pre-emerge Herbicidal Activity, phytotoxicity rating (0-100), CHEAL ([7]; 63 g ai/ha): 100 | Pre-emerge Herbicidal Activity, phytotoxicity rating (0-100), CHEAL ([7]; 250 g ai/ha): 100 | Pre-emerge Herbicidal Activity, phytotoxicity rating (0-100), DIGSA ([8]; 63 g ai/ha): 70 | Pre-emerge Herbicidal Activity, phytotoxicity rating (0-100), DIGSA ([8]; 250 g ai/ha): 100 | Pre-emerge Herbicidal Activity, phytotoxicity rating (0-100), CASOB ([9]; 63 g ai/ha): 100 | Pre-emerge Herbicidal Activity, phytotoxicity rating (0-100), CASOB ([9]; 250 g ai/ha): 100 | Pre-emerge Herbicidal Activity, phytotoxicity rating (0-100), ABUTH ([10]; 63 g ai/ha): 100 | Pre-emerge Herbicidal Activity, phytotoxicity rating (0-100), ABUTH ([10]; 250 g ai/ha): 100 | Pre-emerge phytotoxicity rating (0-100), crop damage, CORN ([11]; 63 g ai/ha): 25 | Pre-emerge phytotoxicity rating (0-100), crop damage, CORN ([11]; 250 g ai/ha): 90 | Pre-emerge phytotoxicity rating (0-100), crop damage, RICE ([12]; 63 g ai/ha): 40 | Pre-emerge phytotoxicity rating (0-100), crop damage, RICE ([12]; 250 g ai/ha): 90 | phytotoxicity rating ECHCG ([13]; 63 g ai/ha): 0 | phytotoxicity rating ECHCG ([13]; 250 g ai/ha): 30 | phytotoxicity rating AMBEL ([14]; 63 g ai/ha): 70 | phytotoxicity rating AMBEL ([14]; 250 g ai/ha): 85 | phytotoxicity rating IPOHE ([15]; 63 g ai/ha): 75 | phytotoxicity rating IPOHE ([15]; 250 g ai/ha): 95 | phytotoxicity rating SORHA ([16]; 63 g ai/ha): 40 | phytotoxicity rating SORHA ([16]; 250 g ai/ha): 80 | phytotoxicity rating CHEAL ([17]; 63 g ai/ha): 85 | phytotoxicity rating CHEAL ([17]; 250 g ai/ha): 90 | phytotoxicity rating DIGSA ([18]; 63 g ai/ha): 10 | phytotoxicity rating DIGSA ([18]; 250 g ai/ha): 30 | phytotoxicity rating AMARE ([19]; 63 g ai/ha): 95 | phytotoxicity rating AMARE ([19]; 250 g ai/ha): 95 | phytotoxicity rating CASOB ([20]; 63 g ai/ha): 100 | phytotoxicity rating CASOB ([20]; 250 g ai/ha): 100 | phytotoxicity rating ABUTH ([21]; 63 g ai/ha): 100 | phytotoxicity rating ABUTH ([21]; 250 g ai/ha): 100 | phytotoxicity rating CORN ([22]; 63 g ai/ha): 60 | phytotoxicity rating CORN ([22]; 250 g ai/ha): 90 | phytotoxicity rating RICE ([23]; 63 g ai/ha): 65 | phytotoxicity rating RICE ([23]; 250 g ai/ha): 85

COc1c(Cl)cc(F)c(-n2c(=O)cc(C(F)(F)F)n(C)c2=O)c1NC(=O)c1ccc(-c2ccccc2)cc1 [2-37]
Pre-emerge Herbicidal Activity, phytotoxicity rating (0-100), AMARE ([1]; 63 g ai/ha): 0 | Pre-emerge Herbicidal Activity, phytotoxicity rating (0-100), AMARE ([1]; 250 g ai/ha): 30 | Pre-emerge Herbicidal Activity, phytotoxicity rating (0-100), ECHCG ([2]; 63 g ai/ha): 0 | Pre-emerge Herbicidal Activity, phytotoxicity rating (0-100), ECHCG ([2]; 250 g ai/ha): 0 | Pre-emerge Herbicidal Activity, phytotoxicity rating (0-100), AMBEL ([3]; 63 g ai/ha): 0 | Pre-emerge Herbicidal Activity, phytotoxicity rating (0-100), AMBEL ([3]; 250 g ai/ha): 0 | Pre-emerge Herbicidal Activity, phytotoxicity rating (0-100), SETVI ([4]; 63 g ai/ha): 0 | Pre-emerge Herbicidal Activity, phytotoxicity rating (0-100), SETVI ([4]; 250 g ai/ha): 0 | Pre-emerge Herbicidal Activity, phytotoxicity rating (0-100), IPOHE ([5]; 63 g ai/ha): 0 | Pre-emerge Herbicidal Activity, phytotoxicity rating (0-100), IPOHE ([5]; 250 g ai/ha): 0 | Pre-emerge Herbicidal Activity, phytotoxicity rating (0-100), SORHA ([6]; 63 g ai/ha): 0 | Pre-emerge Herbicidal Activity, phytotoxicity rating (0-100), SORHA ([6]; 250 g ai/ha): 0 | Pre-emerge Herbicidal Activity, phytotoxicity rating (0-100), CHEAL ([7]; 63 g ai/ha): 0 | Pre-emerge Herbicidal Activity, phytotoxicity rating (0-100), CHEAL ([7]; 250 g ai/ha): 50 | Pre-emerge Herbicidal Activity, phytotoxicity rating (0-100), DIGSA ([8]; 63 g ai/ha): 0 | Pre-emerge Herbicidal Activity, phytotoxicity rating (0-100), DIGSA ([8]; 250 g ai/ha): 0 | Pre-emerge Herbicidal Activity, phytotoxicity rating (0-100), CASOB ([9]; 63 g ai/ha): 0 | Pre-emerge Herbicidal Activity, phytotoxicity rating (0-100), CASOB ([9]; 250 g ai/ha): 0 | Pre-emerge Herbicidal Activity, phytotoxicity rating (0-100), ABUTH ([10]; 63 g ai/ha): 0 | Pre-emerge Herbicidal Activity, phytotoxicity rating (0-100), ABUTH ([10]; 250 g ai/ha): 30 | Pre-emerge phytotoxicity rating (0-100), crop damage, CORN ([11]; 63 g ai/ha): 0 | Pre-emerge phytotoxicity rating (0-100), crop damage, CORN ([11]; 250 g ai/ha): 0 | Pre-emerge phytotoxicity rating (0-100), crop damage, RICE ([12]; 63 g ai/ha): 0 | Pre-emerge phytotoxicity rating (0-100), crop damage, RICE ([12]; 250 g ai/ha): 0 | phytotoxicity rating ECHCG ([13]; 63 g ai/ha): 0 | phytotoxicity rating ECHCG ([13]; 250 g ai/ha): 0 | phytotoxicity rating AMBEL ([14]; 63 g ai/ha): 0 | phytotoxicity rating AMBEL ([14]; 250 g ai/ha): 0 | phytotoxicity rating IPOHE ([15]; 63 g ai/ha): 0 | phytotoxicity rating IPOHE ([15]; 250 g ai/ha): 0 | phytotoxicity rating SORHA ([16]; 63 g ai/ha): 0 | phytotoxicity rating SORHA ([16]; 250 g ai/ha): 0 | phytotoxicity rating CHEAL ([17]; 63 g ai/ha): 0 | phytotoxicity rating CHEAL ([17]; 250 g ai/ha): 20 | phytotoxicity rating DIGSA ([18]; 63 g ai/ha): 0 | phytotoxicity rating DIGSA ([18]; 250 g ai/ha): 0 | phytotoxicity rating AMARE ([19]; 63 g ai/ha): 0 | phytotoxicity rating AMARE ([19]; 250 g ai/ha): 10 | phytotoxicity rating CASOB ([20]; 63 g ai/ha): 0 | phytotoxicity rating CASOB ([20]; 250 g ai/ha): 0 | phytotoxicity rating ABUTH ([21]; 63 g ai/ha): 0 | phytotoxicity rating ABUTH ([21]; 250 g ai/ha): 30 | phytotoxicity rating CORN ([22]; 63 g ai/ha): 0 | phytotoxicity rating CORN ([22]; 250 g ai/ha): 0 | phytotoxicity rating RICE ([23]; 63 g ai/ha): 0 | phytotoxicity rating RICE ([23]; 250 g ai/ha): 0
